From patent US11331294B2, “Benzoquinone derivative E3330 in combination with chemotherapeutic agents for the treatment of bladder cancer” (Indiana University Research and Technology Corporation, priority 2007, dated 2022)

Assays:
[1] = test system: RP-B-01, RP-B-02 and T24 cell lines; assay: Alamar blue combination study with cisplatin; type: cell-based, human; conditions: combined with increasing concentrations of cisplatin, 72 h
Experimental: FIGS. 30A-30C. […] RP-B-01, RP-B-02, and T24 cell lines were treated with increasing concentrations of cisplatin in combination with a single dose of either APX2009 or APX2014 as indicated (n=3±SE). Cell proliferation was normalized to Saline control and expressed as Fold Change. Combination index (CI) values calculated with Compusyn for combination of APX inhibitors and cisplatin. CI values indicated mainly additivity (0.95-1.2) to synergy (0.8-0.94).
Bladder cancer cell lines (BLCAb001 (RP-B-01) and BLCAb002 (RP-B-02) maintained in RPMI growth medium with 10% FBS were plated at 4,000 cells/well in poly-D-lysine treated 96-well clear bottom black plates and grown overnight in 5% CO2 at 37° C. Cells in monolayer were then treated with increasing concentrations of redox-specific inhibitor APX3330, APX2014 or APX2009 and serially diluted 1:2 in a 5-point dose scheme. For combination studies, cells were treated with both cisplatin and APX compounds to determine efficacy. After 72 hours, fresh RPMI medium with 5% FBS was exchanged, and a fluorescent metabolic indicator, Alamar Blue was added to each well at 10% final concentration. After a 4 hour incubation, plates were read on a Synergy H4 (Bio-Tek) plate reader. […]
APE1/Ref-1 inhibition enhances cisplatin's therapeutic effect. […] Cell proliferation was assessed using Alamar blue 72 h after drug treatment.

[2] = target: redox function of Ape1/Ref-1 (Homo sapiens, UniProt P27695); assay: Selective inhibition of the redox function of Ape1/Ref-1
ECFC colonies = assay: Limiting dilution assay (LDA); type: cell-based; conditions: 25, 37.5, 50 μM
Experimental: Limiting dilution assay. […] ECFCs were cultured as previously described (Blood, 1 Nov. 2004, Vol. 104, No. 9, pp. 2752-2760). ECFC colonies appeared between 5 and 22 days of culture. Colonies and the number of cells per colony were counted by visual inspection using an inverted microscope. […] Increasing amounts of APX3330(RN3-3) leads to a decrease in the number of colonies with large numbers of cells and an increase in colonies with only small cell numbers indicative of inhibition of cell growth. (FIG. 9). (In FIG. 9, the bars are, left to right, EtOH, and E330 dosed at 25 μM, 37.5 μM, and 50 μM.)

[3] = test system: retinal vascular endothelial cells (RVEC); assay: MTS proliferation assay of retinal endothelial cells; type: cell-based, mouse
Experimental: Inhibition of endothelial cell proliferation. […] Young adult mouse retinal tissues were dissected out and digested. Cells were plated in 24 well plates and grown to confluence, then seeded to 96 well plates for assay. Three days after seeding, the total number of cells was assayed by MTS measurement (Promega). The proliferation rate was calculated according to manufacturer's instructions. Proliferations of RECs from different groups were compared for statistical significance. APX3330 (RN3-3) blocked REC proliferation indicative of anti-blood vessel formation effects. (FIG. 10)
APX3330 10-100 μM decreased cell proliferation of retinal vascular endothelial cells (RVEC) (FIG. 11). In basal media, APX3330 inhibited REVC cell proliferation at all 4 concentrations tested, 10 μM-57%, 25 μM-93% (p<0.01).

pancreatic tumor cells = assay: Annexin V/PI apoptosis assay in pancreatic tumor cells; type: cell-based
Experimental: APX3330 in combination with chemotherapeutic Gemcitabine. […] To analyze the cells for apoptosis, cells were plated and allowed to attach overnight. Cells were treated with APX3330 alone or with gemcitabine. Apoptosis was assayed about 24 and 48 hr following treatment. Cells were trypsinized, pelleted, washed in ice-cold PBS, and resuspended in 1× binding buffer [about 10 mmol/L HEPES/NaOH (pH 7.4), 140 mmol/L NaCl, 2.5 mmol/L CaCl2]. Apoptosis was analyzed using the Alexa Fluor 488 AnnexinV from Vybrant Apoptosis Assay kit in combination with propidium iodide (Molecular Probes, Eugene, Oreg.) as described previously Clinical Cancer Research 13, 260-267, Jan. 1, 2007. Cells that were strongly Annexin positive were considered positive for apoptosis. The samples were analyzed by flow cytometry in the Indiana University Cancer Center flow cytometry facility.
APX3330 in combination with Methoxyamine-pancreatic cells. […] To analyze the cells for apoptosis, cells were plated and allowed to attach overnight. […] Apoptosis was analyzed using the Alexa Fluor 488 Annexin V from Vybrant Apoptosis Assay kit in combination with propidium iodide (Molecular Probes, Eugene, Oreg.) as described previously Clinical Cancer Research 13, 260-267, Jan. […] The samples were analyzed by flow cytometry in the Indiana University Cancer Center flow cytometry facility.

[4] = Preliminary in vivo safety in mice (body weight); conditions: male mice, under 50 mg/kg

redox function of Ape1/Ref-1, sequence (P27695 whole entry): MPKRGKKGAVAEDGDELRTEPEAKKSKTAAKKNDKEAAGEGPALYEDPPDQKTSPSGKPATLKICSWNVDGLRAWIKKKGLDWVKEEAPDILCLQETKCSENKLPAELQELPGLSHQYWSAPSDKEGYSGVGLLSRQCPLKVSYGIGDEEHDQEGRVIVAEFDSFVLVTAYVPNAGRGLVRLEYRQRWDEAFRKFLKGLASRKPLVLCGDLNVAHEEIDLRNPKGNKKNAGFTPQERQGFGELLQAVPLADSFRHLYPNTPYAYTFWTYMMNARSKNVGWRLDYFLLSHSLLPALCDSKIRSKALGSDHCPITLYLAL

Row | Compound | cellular proliferation when combined with cisplatin [1] | inhibition of the redox function of Ape1/Ref-1 [2] | growth of large cell number colonies (ECFC colonies) | inhibition at 10 µM ([3]; Mus musculus, Endothelial cell, 10 μM, basal media) | inhibition at 25 µM ([3]; Mus musculus, Endothelial cell, 25 μM, basal media) | retinal endothelial cell proliferation ([3]; about 10-100 μM, with or without bFGF) | apoptosis in combination with methoxyamine (pancreatic tumor cells; about 24 and 96 hr) | apoptosis in combination with gemcitabine (pancreatic tumor cells; gemcitabine about 0.25 μM, 24 and 48 hr) | mouse toxicity [4]
1 | CCC/C(=C\C1=C(OC)C(=O)c2ccccc2C1=O)C(=O)N(CC)CC [APX2009, [(2E)-2-[(3-methoxy-1,4-dioxo-1,4-dihydronaphthalen-2-yl)methylidene]-N,N-diethylpentanamide]] | further reduction in cellular proliferation |  |  |  |  |  |  |  | 
2 | CCCCCCCCC/C(=C\C1=C(C)C(=O)C(OC)=C(OC)C1=O)C(=O)O [APX3330] |  | selectively inhibited | inhibit growth of large cell number colonies | 57% | 93% | decreased retinal endothelial cell proliferation | enhanced the apoptosis inducing effects of methoxyamine | enhanced the apoptosis inducing effects of gemcitabine | No mouse toxicity was observed
